In PubChem BioAssay AID2060609 (Molecular Pharmacology Branch, DTP, NCI, 2025):
Where “and” joins values, the source holds several entries; their conditions need not be identical. Identical values can stand only once.

System: 855422-203-R-J1-PDC complex spheroids, viability
Assay: Anticancer human tumor 855422-203-R-J1-PDC patient-derived bladder carcinoma cell line growth inhibition [CLK]
Conditions: for viability, T/C: stronger effect = lower value
Description: A high-throughput screen of multi-cell type tumor spheroids was designed to identify active combinations of […] and targeted small molecules. Complex spheroids include a stromal component modeled by human endothelial cells (HUVEC) and fibroblasts modeled by human mesenchymal stem cells (MSCs). The concentration ranges selected for each drug and investigational agent were based upon clinically achievable concentrations if the clinical Cmax of the agent was known.
Compounds. The drugs and investigational agents: cirtuvivint (SM08502; NSC835563), CC-671 (NSC850746), vemurafenib (NSC761431), tapotoclax (NSC804041), sotorasib (NSC818433), adagrasib (NSC831453), MRTX-1133 (NSC836407), BAY2416964 (NSC825713), copanlisib (NSC816437), inavolisib (NSC800729), abemaciclib (NSC768073), osimertinib (NSC779217), entinostat (NSC756642), eltanexor (KPT-8602, NSC794443), venetoclax (NSC766270), ceralasertib (NSC777638), bortezomib (NSC756655), olaparib (NSC753686), talazoparib (NSC767125), alisertib (NSC759677), peposertib (NSC802822), gemcitabine (NSC613327), 5-fluorouracil (NSC19893), SN-38 (NSC673596), oxaliplatin (NSC266046), paclitaxel (NSC125973), and doxorubicin (NSC123127), were obtained from the National Cancer Institute (NCI) Developmental Therapeutics Program Chemical Repository. The FDA-approved anticancer drug set is available from the Developmental Therapeutics Program at https://dtp.cancer.gov/organization/dscb/obtaining/available plates.htm. […] The stock solutions were prepared in dimethyl sulfoxide (DMSO, Sigma-Aldrich, St. Louis, MO, cat. D2650), except for the platinum complexes which were prepared in saline (Quality Biological, Gaithersburg, MD, cat. 114-055-101), at 800-fold the tested concentration and stored at -70 degrees C prior to their use. All drugs and investigational agents were tested over a range starting from a high concentration at or near the clinical Cmax and decreasing in half-log increments. If the clinical Cmax for an agent had not been determined, the highest concentration tested was 10 microM.
Cell Culture. All cells were maintained in an incubator at 37 degrees C and 5% CO2 with 95% humidity. The PDC lines were cultured according to standard operating procedures established by the NCI PDMR. Briefly, all PDCs were thawed and cultured in Matrigel-coated flasks prepared with a working solution of 1X Ham's F-12 nutrient mix, without supplementation (Invitrogen, Waltham, MA, cat. 11765054), 100 U/mL penicillin-streptomycin (Invitrogen, cat. 15140122), and 2.5% Matrigel (Corning Inc., Corning, NY, cat. 354248) for the first three passages. The 947758-054-R-J2-PDC line was cultured in 6B/Colon 1A media, which includes advanced DMEM/F-12 (Thermo Fisher Scientific, cat. 12634028), 10 mM HEPES (Thermo Fisher Scientific, cat. 15630080), 1X GlutaMAX supplement (Thermo Fisher Scientific, cat. 35050061), 0.1 mg/mL primocin (InvivoGen, cat. ant-pm-2), 10% defined fetal bovine serum, heat inactivated (HyClone Laboratories Inc., cat. SH30070.03HI), 1.25 mM N-Acetyl-L-cysteine (Sigma-Aldrich, cat. A9165), 10 mM nicotinamide (Sigma-Aldrich, cat. N0636), 1X B-27 supplement (Thermo Fisher Scientific, cat. 17504044), 1X N-2 supplement (Thermo Fisher Scientific, cat. 17502048), and 10 microM Y-27632 dihydrochloride (Tocris Bioscience, cat. 1254). The 876862-298-R-J1-PDC was cultured in 6E media, which includes all 6B/Colon 1A media components plus 50% L-WRN conditioned media (ATCC, cat. CRL-3276), 50 ng/mL recombinant human EGF recombinant protein (hEGF; Thermo Fisher Scientific, cat. PHG0311), 10 ng/mL recombinant human fibroblast growth factor 10 (hGFG-10; PeproTech, cat. 100-26), 1 ng/mL recombinant human fibroblast growth factor 2 (hFGF-2; PeproTech, cat. 100-18B), and 1 µM prostaglandin E2 (PGE2; Tocris, cat. 2296). The 227483-062-R1-J1-PDC line was cultured in Panc media, containing all 6E components except hFGF-2, with the addition of 500 nM SB-431542 (Selleckchem, cat. S1067) and 10 nM gastrin (Tocris, cat. 3006). […]

[1] = curve of first compound, second compound 0.0316 µM
[2] = curve of first compound, second compound 0.1 µM
[3] = curve of first compound, second compound 0.316 µM
[4] = curve of first compound, second compound 1 µM
[5] = curve of first compound, second compound 3.16 µM
[6] = curve of first compound, second compound 10 µM
[7] = second compound 0.0316 µM, first compound 0.0316 µM
[8] = second compound 0.0316 µM, first compound 0.1 µM
[9] = second compound 0.0316 µM, first compound 0.316 µM
[10] = second compound 0.0316 µM, first compound 1 µM
[11] = second compound 0.0316 µM, first compound 3.16 µM
[12] = second compound 0.0316 µM, first compound 10 µM
[13] = second compound 0.1 µM, first compound 0.0316 µM
[14] = second compound 0.1 µM, first compound 0.1 µM
[15] = second compound 0.1 µM, first compound 0.316 µM
[16] = second compound 0.1 µM, first compound 1 µM
[17] = second compound 0.1 µM, first compound 3.16 µM
[18] = second compound 0.1 µM, first compound 10 µM
[19] = second compound 0.316 µM, first compound 0.0316 µM
[20] = second compound 0.316 µM, first compound 0.1 µM
[21] = second compound 0.316 µM, first compound 0.316 µM
[22] = second compound 0.316 µM, first compound 1 µM
[23] = second compound 0.316 µM, first compound 3.16 µM
[24] = second compound 0.316 µM, first compound 10 µM
[25] = second compound 1 µM, first compound 0.0316 µM
[26] = second compound 1 µM, first compound 0.1 µM
[27] = second compound 1 µM, first compound 0.316 µM
[28] = second compound 1 µM, first compound 1 µM
[29] = second compound 1 µM, first compound 3.16 µM
[30] = second compound 1 µM, first compound 10 µM
[31] = second compound 3.16 µM, first compound 0.0316 µM
[32] = second compound 3.16 µM, first compound 0.1 µM
[33] = second compound 3.16 µM, first compound 0.316 µM
[34] = second compound 3.16 µM, first compound 1 µM
[35] = second compound 3.16 µM, first compound 3.16 µM
[36] = second compound 3.16 µM, first compound 10 µM
[37] = second compound 10 µM, first compound 0.0316 µM
[38] = second compound 10 µM, first compound 0.1 µM
[39] = second compound 10 µM, first compound 0.316 µM
[40] = second compound 10 µM, first compound 1 µM
[41] = second compound 10 µM, first compound 3.16 µM
[42] = second compound 10 µM, first compound 10 µM
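Further: spheroids exposed to drugs for seven days before readout.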
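Wherever viability, T/C is given: 100% = DMSO vehicle control wells.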

CC1(C)CCC(CN2CCN(c3ccc(C(=O)NS(=O)(=O)c4ccc(NCC5CCOCC5)c([N+](=O)[O-])c4)c(Oc4cnc5[nH]ccc5c4)c3)CC2)=C(c2ccc(Cl)cc2)C1 + CN1CCN(c2cc(C(=O)Nc3cc4cc(-c5cnn(C)c5)ccc4cn3)ccn2)CC1 showed an IC50 [1] of 6.06 µM, an IC50 [2] of 5.32 µM and an IC50 [3] of under 0.0316 µM. It also gave an IC50 [4] of under 0.0316 µM, an IC50 [5] of under 0.0316 µM and an IC50 [6] of under 0.0316 µM. The viability, T/C [7] was 97.3%, the viability, T/C [8] was 96.2% and the viability, T/C [9] was 115%. The viability, T/C [10] was 116%, the viability, T/C [11] was 137% and the viability, T/C [12] was 1.97%. For the same compound, the viability, T/C [13] was 85.1%, the viability, T/C [14] was 81.9% and the viability, T/C [15] was 104%. The viability, T/C [16] was 88.2%, the viability, T/C [17] was 93% and the viability, T/C [18] was 1.08%. For the same compound, the viability, T/C [19] was 10.7%, the viability, T/C [20] was 11.8% and the viability, T/C [21] was 8.68%. It also gave a viability, T/C [22] of 10.2%, a viability, T/C [23] of 10.3% and a viability, T/C [24] of 0.47%. It also gave a viability, T/C [25] of 0.26%, a viability, T/C [26] of 0.89% and a viability, T/C [27] of 0.24%. The viability, T/C [28] was 0.46%, the viability, T/C [29] was 0.51% and the viability, T/C [30] was 0.11%. The viability, T/C [31] was 0.63%, the viability, T/C [32] was 2.77% and the viability, T/C [33] was 0.71%. The viability, T/C [34] was 0.87%, the viability, T/C [35] was 1.82% and the viability, T/C [36] was 1.58%. The viability, T/C [37] was 0.52%, the viability, T/C [38] was 0.31% and the viability, T/C [39] was 0.36%. For the same compound, the viability, T/C [40] was 0.45%, the viability, T/C [41] was 0.29% and the viability, T/C [42] was 0.25%.

For O=c1[nH]cc(F)c(=O)[nH]1 + CNC(=O)c1ccc(Nc2nc(OC3CCCC3)c3c(-c4ccc5nc(C)oc5c4)c[nH]c3n2)c(OC)c1, the IC50 [1] was 9.09 µM, the IC50 [2] was 0.527 µM and the IC50 [3] was under 0.0316 µM. It also gave an IC50 [4] of under 0.0316 µM, an IC50 [5] of under 0.0316 µM and an IC50 [6] of under 0.0316 µM. The viability, T/C [7] was 135%, the viability, T/C [8] was 119% and the viability, T/C [9] was 98.4%. It also gave a viability, T/C [10] of 72.3%, a viability, T/C [11] of 67.5% and a viability, T/C [12] of 47.9%. The viability, T/C [13] was 65.5%, the viability, T/C [14] was 65.7% and the viability, T/C [15] was 56.4%. For the same compound, the viability, T/C [16] was 40.3%, the viability, T/C [17] was 40.8% and the viability, T/C [18] was 44.9%. For the same compound, the viability, T/C [19] was 26.4%, the viability, T/C [20] was 22.8% and the viability, T/C [21] was 22.1%. For the same compound, the viability, T/C [22] was 18.4%, the viability, T/C [23] was 19.7% and the viability, T/C [24] was 18.9%. For the same compound, the viability, T/C [25] was 23.3%, the viability, T/C [26] was 23.9% and the viability, T/C [27] was 27.6%. The viability, T/C [28] was 17.3%, the viability, T/C [29] was 14.5% and the viability, T/C [30] was 17.9%. It also gave a viability, T/C [31] of 25.1%, a viability, T/C [32] of 23.8% and a viability, T/C [33] of 22.1%. For the same compound, the viability, T/C [34] was 16.3%, the viability, T/C [35] was 12.7% and the viability, T/C [36] was 14.7%. For the same compound, the viability, T/C [37] was 21.5%, the viability, T/C [38] was 23.3% and the viability, T/C [39] was 20.2%. The viability, T/C [40] was 17.9%, the viability, T/C [41] was 14.7% and the viability, T/C [42] was 13.6%.

Compound O=C(c1cc(Cc2n[nH]c(=O)c3ccccc23)ccc1F)N1CCN(C(=O)C2CC2)CC1 + CNC(=O)c1ccc(Nc2nc(OC3CCCC3)c3c(-c4ccc5nc(C)oc5c4)c[nH]c3n2)c(OC)c1 has an IC50 [1] of over 10 µM, an IC50 [2] of 4.78 µM and an IC50 [3] of under 0.0316 µM. It also gave an IC50 [4] of under 0.0316 µM, an IC50 [5] of under 0.0316 µM and an IC50 [6] of under 0.0316 µM. For the same compound, the viability, T/C [7] was 117%, the viability, T/C [8] was 100% and the viability, T/C [9] was 111%. The viability, T/C [10] was 98.1%, the viability, T/C [11] was 112% and the viability, T/C [12] was 82.5%. For the same compound, the viability, T/C [13] was 58.6%, the viability, T/C [14] was 69.4% and the viability, T/C [15] was 63.6%. For the same compound, the viability, T/C [16] was 47.4%, the viability, T/C [17] was 57.2% and the viability, T/C [18] was 45.1%. The viability, T/C [19] was 20.3%, the viability, T/C [20] was 21.5% and the viability, T/C [21] was 21.1%. It also gave a viability, T/C [22] of 23.7%, a viability, T/C [23] of 21.9% and a viability, T/C [24] of 23.8%. For the same compound, the viability, T/C [25] was 24.4%, the viability, T/C [26] was 21.6% and the viability, T/C [27] was 21.1%. The viability, T/C [28] was 28.1%, the viability, T/C [29] was 22.1% and the viability, T/C [30] was 18.5%. It also gave a viability, T/C [31] of 23.3%, a viability, T/C [32] of 22.3% and a viability, T/C [33] of 21.6%. For the same compound, the viability, T/C [34] was 19.9%, the viability, T/C [35] was 21.3% and the viability, T/C [36] was 23.4%. It also gave a viability, T/C [37] of 18.5%, a viability, T/C [38] of 18% and a viability, T/C [39] of 17.9%. It also gave a viability, T/C [40] of 20%, a viability, T/C [41] of 19.9% and a viability, T/C [42] of 19.5%.

For CC(Nc1ccc2c(c1)OCCn1cc(N3C(=O)OCC3C(F)F)nc1-2)C(N)=O (stereo not drawn), the viability, T/C (compound 0.0316 µM) was 94.9% and 74%, the viability, T/C (compound 0.1 µM) was 71% and 67.6% and the viability, T/C (compound 0.316 µM) was 50.9% and 45.7%. For the same compound, the viability, T/C (compound 1 µM) was 28.4% and 20.6%, the viability, T/C (compound 3.16 µM) was 21.2% and 20.3% and the viability, T/C (compound 10 µM) was 16.1% and 11.5%. For the same compound, the IC50 (curve of compound) was 0.294 µM and 0.249 µM.
